In patent US9365583B2, “Substituted pyrazoles and uses thereof” (Genentech, Inc., priority 2013, dated 2016):

Target: T1, N-terminally GST-tagged DLK (catalytic domain amino acid 1-520) (Homo sapiens, UniProt Q12852)
T1 construct: N-terminally GST-tagged DLK (catalytic domain amino acid 1-520); purchased Carna Bioscience
T1 sequence (Q12852 1-520): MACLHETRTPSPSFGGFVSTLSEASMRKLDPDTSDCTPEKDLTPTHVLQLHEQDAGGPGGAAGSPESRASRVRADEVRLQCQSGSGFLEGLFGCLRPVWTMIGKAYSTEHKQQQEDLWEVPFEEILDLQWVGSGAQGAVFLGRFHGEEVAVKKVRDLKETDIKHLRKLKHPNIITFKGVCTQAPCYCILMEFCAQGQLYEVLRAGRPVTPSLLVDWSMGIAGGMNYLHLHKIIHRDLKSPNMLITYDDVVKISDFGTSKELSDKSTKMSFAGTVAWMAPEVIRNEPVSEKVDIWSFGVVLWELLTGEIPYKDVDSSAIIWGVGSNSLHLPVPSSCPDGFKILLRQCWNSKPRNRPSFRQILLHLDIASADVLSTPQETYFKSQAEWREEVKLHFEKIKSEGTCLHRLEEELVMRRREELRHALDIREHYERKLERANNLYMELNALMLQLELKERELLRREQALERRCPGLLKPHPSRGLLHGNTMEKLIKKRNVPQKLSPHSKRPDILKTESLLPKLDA
Test: DLK TR-FRET inhibition assay
Type: biochemical
Conditions: 5 nM GST-DLK, 40 nM HIS-MKK4 K131M substrate, 30 μM ATP, 60 minutes at ambient temperature
Summary of the method: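 5 nM GST-DLK (aa 1-520), 40 nM HIS-MKK4 K131M and 30 μM ATP reacted 60 min at ambient temperature in HEPES pH 7.5 buffer with 10 mM MgCl2, compound 1:3 serially diluted from 20 uM. TR-FRET detection of phospho-MKK4 used Eu-cryptate anti-phospho-MKK4 plus D2 anti-HIS, read after 3 h (665/615 nm).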

Structure (SMILES) | Ki
CC(C)n1nc(-c2cnc(N)c(C(F)(F)F)c2)cc1[C@H]1[C@@H]2C[C@H](N3CC(F)(F)C3)C[C@@H]21 [compound 54, 5-(5-((1R,3r,5S,6r)-3-(3,3-difluoro-azetidin-1-yl)bicyclo[3.1.0]hexan-6-yl)-1-isopropyl-1H-pyrazol-3-yl)-3-(trifluoromethyl) pyridin-2-amine] | 7.68 nM
CC(C)n1nc(-c2cnc(N)c(OC(F)(F)F)c2)cc1[C@H]1[C@@H]2C[C@H](N3CC4(COC4)C3)C[C@@H]21 [compound 57, 5-(5-((1R,3r,5S,6r)-3-(2-oxa-6-azaspiro[3.3]heptan-6-yl)bicyclo [3.1.0]hexan-6-yl)-1-isopropyl-1H-pyrazol-3-yl)-3-(trifluoro-methoxy)pyridin-2-amine] | 1.88 nM
CC(C)n1nc(-c2cnc(N)c(C(F)(F)F)c2)cc1[C@H]1[C@@H]2C[C@H](N3CCOC3=O)C[C@@H]21 [compound 59, 3-((1R,3r,5S,6r)-6-(3-(6-amino-5-(trifluoromethyl)pyridin-3-yl)-1-isopropyl-1H-pyrazol-5-yl)bicyclo[3.1.0]hexan-3-yl) oxazolidin-2-one] | 3.06 nM
COC1CN([C@H]2C[C@@H]3[C@H](C2)[C@H]3c2cc(-c3cnc(N)c(OC(F)F)c3)nn2C(C)C)C1 [compound 61, 3-(difluoromethoxy)-5-(1-isopropyl-5-((1R,3r,5S,6r)-3-(3-methoxy-azetidin-1-yl)bicyclo[3.1.0]hexan-6-yl)-1H-pyrazol-3-yl) pyridin-2-amine] | 3.05 nM
COC1CN([C@@H]2C[C@@H]3[C@H](C2)[C@H]3c2cc(-c3cnc(N)c(OC(F)F)c3)nn2C(C)C)C1 [compound 62, 3-(difIuoromethoxy)-5-(1-isopropyl-5-((1R,3s,5S,6r)-3-(3-methoxy-azetidin-1-yl)bicyclo[3.1.0]hexan-6-yl)-1H-pyrazol-3-yl) pyridin-2-amine] | 2.73 nM
CC(C)n1nc(-c2cnc(N)c(C(F)(F)F)c2)cc1[C@H]1[C@@H]2C[C@@H](N3CCN(C)CC3)C[C@@H]21 [compound 67, 5-(1-isopropyl-5-((1R,3s,5S,6r)-3-(4-methylpiperazin-1-yl)bicyclo [3.1.0]hexan-6-yl)-1H-pyrazol-3-yl)-3-(trifluoromethyl)pyridin-2-amine] | 3.93 nM
CC(C)n1nc(-c2cnc(N)c(OC(F)(F)F)c2)cc1[C@H]1[C@@H]2C[C@@H](N3CCOCC3)C[C@@H]21 [compound 68, 5-(1-isopropyl-5-((1R,3s,5S,6r)-3-morpholinobicyclo[3.1.0]hexan-6-yl)-1H-pyrazol-3-yl)-3-(trifluoromethoxy)pyridin-2-amine] | 1.2 nM
CC(C)n1nc(-c2cnc(N)c(OC(F)(F)F)c2)cc1[C@H]1[C@@H]2C[C@H](N3CCOCC3)C[C@@H]21 [compound 69, 5-(1-isopropyl-5-((1R,3r,5S,6r)-3-morpholinobicyclo[3.1.0]hexan-6-yl)-1H-pyrazol-3-yl)-3-(trifluoromethoxy)pyridin-2-amine] | 2.97 nM
CC(C)n1nc(-c2cnc(N)c(C(F)(F)F)c2)cc1[C@H]1[C@@H]2C[C@H](N3CC(C#N)C3)C[C@@H]21 [compound 70, 1-((1R,3r,5S,6r)-6-(3-(6-amino-5-(trifIuoromethyl)pyridin-3-yl)-1-isopropyl-1H-pyrazol-5-yl)bicyclo[3.1.0]hexan-3-yl)azetidine-3-carbonitrile] | 2.9 nM

Second part, the molecule after the results:

Ki | Structure (SMILES)
5.4 nM | CC(C)n1nc(-c2cnc(N)c(C(F)(F)F)c2)cc1[C@H]1[C@@H]2C[C@H](N3C[C@H]4C[C@@H]3CO4)C[C@@H]21 [compound 55, 5-(5-((1R,3r,5S,6R)-3-((1R,4R)-2-oxa-5-azabicyclo[2.2.1]heptan-5-yl)bicyclo[3.1.0]hexan-6-yl)-1-isopropyl-1H-pyrazol-3-yl)-3-(trifluoromethyl)pyridin-2-amine]
4.81 nM | CC(C)n1nc(-c2cnc(N)c(OC(F)(F)F)c2)cc1[C@H]1[C@@H]2C[C@H](N3C[C@H]4C[C@@H]3CO4)C[C@@H]21 [compound 56, 5-(5-((1R,3r,5S,6R)-3-((1R,4R)-2-oxa-5-azabicyclo[2.2.1]heptan-5-yl)bicyclo[3.1.0]hexan-6-yl)-1-isopropyl-1H-pyrazol-3-yl)-3-(trifluoromethoxy)pyridin-2-amine]
1.86 nM | CC(C)n1nc(-c2cnc(N)c(OC(F)(F)F)c2)cc1[C@H]1[C@@H]2C[C@@H](N3CC4(COC4)C3)C[C@@H]21 [compound 58, 5-(5-((1R,3s,5S,6r)-3-(2-oxa-6-azaspiro[3.3]heptan-6-yl)bicyclo [3.1.0]hexan-6-yl)-1-isopropyl-1H-pyrazol-3-yl)-3-(trifluoromethoxy)pyridin-2-amine]
2.21 nM | CC(C)n1nc(-c2cnc(N)c(C(F)(F)F)c2)cc1[C@H]1[C@@H]2C[C@H](N3CCN(C)CC3)C[C@@H]21 [compound 63, 5-(1-isopropyl-5-((1R,3r,5S,6r)-3-(4-methylpiperazin-1-yl)bicyclo [3.1.0]hexan-6-yl)-1H-pyrazol-3-yl)-3-(trifluoromethyl)pyridin-2-amine]
0.763 nM | CC(C)n1nc(-c2cnc(N)c(OC(F)(F)F)c2)cc1[C@H]1[C@@H]2C[C@H](N3CCN(C)CC3)C[C@@H]21 [compound 64, 5-(1-isopropyl-5-((1R,3r,5S,6r)-3-(4-methylpiperazin-1-yl)bicyclo [3.1.0]hexan-6-yl)-1H-pyrazol-3-yl)-3-(trifluoromethoxy) pyridin-2-amine]
1.13 nM | CC(C)n1nc(-c2cnc(N)c(C(F)(F)F)c2)cc1[C@H]1[C@@H]2C[C@H](N3CC4(COC4)C3)C[C@@H]21 [compound 65, 5-(5-((1R,3r,5S,6r)-3-(2-oxa-6-azaspiro[3.3]heptan-6-yl)bicyclo [3.1.0]hexan-6-yl)-1-isopropyl-1H-pyrazol-3-yl)-3-(trifluoro-methyl)pyridin-2-amine]
2.26 nM | CC(C)n1nc(-c2cnc(N)c(OC(F)(F)F)c2)cc1[C@H]1[C@@H]2C[C@@H](N3CCN(C)CC3)C[C@@H]21 [compound 66, 5-(1-isopropyl-5-((1R,3s,5S,6r)-3-(4-methylpiperazin-1-yl)bicyclo [3.1.0]hexan-6-yl)-1H-pyrazol-3-yl)-3-(trifluoromethoxy) pyridin-2-amine]
3.62 nM | CC(C)n1nc(-c2cnc(N)c(OC(F)(F)F)c2)cc1[C@H]1[C@@H]2C[C@H](N3C[C@@H]4C[C@H]3CO4)C[C@@H]21 [compound 71, 5-(5-((1R,3r,5S,6S)-3-((1S,4S)-2-oxa-5-azabicyclo[2.2.1]heptan-5-yl)bicyclo[3.1.0]hexan-6-yl)-1-isopropyl-1H-pyrazol-3-yl)-3-(trifluoromethoxy)pyridin-2-amine]
3.48 nM | CC(C)n1nc(-c2cnc(N)c(C(F)(F)F)c2)cc1[C@H]1[C@@H]2C[C@H](N3C[C@@H]4C[C@H]3CO4)C[C@@H]21 [compound 72, 5-(5-((1R,3r,5S,6S)-3-((1S,4S)-2-oxa-5-azabicyclo[2.2.1]heptan-5-yl)bicyclo[3.1.0]hexan-6-yl)-1-isopropyl-1H-pyrazol-3-yl)-3-(trifluoromethyl)pyridin-2-amine]
1.81 nM | COC1CCN([C@H]2C[C@@H]3[C@H](C2)[C@H]3c2cc(-c3cnc(N)c(OC(F)F)c3)nn2C(C)C)C1 (stereo partly drawn) [compound 73, 3-(difluoromethoxy)-5-(1-isopropyl-5-((lR,3r,5S,6r)-3-(3-methoxy-pyrrolidin-1-yl)bicyclo[3.1.0]hexan-6-yl)-1H-pyrazol-3-yl) pyridin-2-amine]
3.75 nM | CC(C)n1nc(-c2cnc(N)c(OC(F)F)c2)cc1[C@H]1[C@@H]2C[C@@H](N3CCO[C@H](C)C3)C[C@@H]21 [compound 74, 3-(difluoromethoxy)-5-(1-isopropyl-5-((1R,3s,5S,6R)-3-((R)-2-methylmorpholino)bicyclo[3.1.0]hexan-6-yl)-1H-pyrazol-3-yl) pyridin-2-amine]
0.74 nM | CC(C)n1nc(-c2cnc(N)c(OC(F)F)c2)cc1[C@H]1[C@@H]2C[C@@H](N3CCO[C@@H](C)C3)C[C@@H]21 [compound 75, 3-(difluoromethoxy)-5-(1-isopropyl-5-((1R,3s,5S,6S)-3-((S)-2-methylmorpholino)bicyclo[3.1.0]hexan-6-yl)-1H-pyrazol-3-yl) pyridin-2-amine]
2.17 nM | CC(C)n1nc(-c2cnc(N)c(C(F)(F)F)c2)cc1C1[C@H]2CC(N3CCOCC3)C[C@@H]12 (stereo partly drawn) [compound 76, 5-(1-isopropyl-5-((1R,3s,5S,6r)-3-morpholinobicyclo[3.1.0]hexan-6-yl)-1H-pyrazol-3-yl)-3-(trifluoromethyl)pyridin-2-amine]
1.3 nM | CC(C)n1nc(-c2cnc(N)c(OC(F)F)c2)cc1[C@H]1[C@@H]2C[C@H](N3CCO[C@H](C)C3)C[C@@H]21 [compound 77, 3-(difluoromethoxy)-5-(1-isopropyl-5-((1R,3r,5S,6R)-3-((R)-2-methylmorpholino)bicyclo[3.1.0]hexan-6-yl)-1H-pyrazol-3-yl) pyridin-2-amine]
